Assay results from ChEMBL document CHEMBL2021772, “Synthesis and antitumor-evaluation of 1,3,4-thiadiazole-containing benzisoselenazolone derivatives” (Bioorg Med Chem Lett, 2012).

Legend:
MCF7 = assay: Antiproliferative activity against human MCF7 cells after 48 hrs by CCK-8 assay; assay type: functional, cell-based; conditions: MCF7, 48 h
A549 = assay: Antiproliferative activity against human A549 cells after 48 hrs by CCK-8 assay; assay type: functional, cell-based; conditions: A549, 48 h
[1] = Antiproliferative activity against human […] cells after 48 hrs by CCK-8 assay; assay type: functional, cell-based
[2] = Toxicity in rat; assay type: organism-based; conditions: in vivo

SMILES	IC50 (MCF7) [µM]	IC50 (A549) [µM]	IC50 [1] [µM]	LD50 [2] [mg/kg]
O=c1c2ccccc2[se]n1-c1nnc(-c2ccccc2)s1	4.02	2.48	20.5	
O=c1c2ccccc2[se]n1-c1nnc(-c2ccc(F)cc2)s1	61.5	21.1	42.9	
O=c1c2ccccc2[se]n1-c1nnc(-c2ccccc2Cl)s1	4.43	10.1	40.2	
O=c1c2ccccc2[se]n1-c1nnc(-c2ccc(Cl)cc2)s1	19.4	10.4	24.4	
O=c1c2ccccc2[se]n1-c1nnc(-c2ccccc2Br)s1	59.4	12.7	27.4	
O=c1c2ccccc2[se]n1-c1nnc(-c2ccc(Br)cc2)s1	43.3	39.1	68.2	
Cc1ccccc1-c1nnc(-n2[se]c3ccccc3c2=O)s1	36.8	18.6	19.4	
Cc1cccc(-c2nnc(-n3[se]c4ccccc4c3=O)s2)c1	19.9	14.8	17.8	
Cc1ccc(-c2nnc(-n3[se]c4ccccc4c3=O)s2)cc1	18.7	13.4	16.6	
COc1ccccc1-c1nnc(-n2[se]c3ccccc3c2=O)s1	3.92	3.12	14.3	
COc1ccc(-c2nnc(-n3[se]c4ccccc4c3=O)s2)cc1	10	5.93	16.4	
COc1cc(-c2nnc(-n3[se]c4ccccc4c3=O)s2)cc(OC)c1OC	3.44	3.24	7.15	
O=c1c2ccccc2[se]n1-c1nnc(-c2ccccc2[N+](=O)[O-])s1	31.2	11.4	22.5	
O=c1c2ccccc2[se]n1-c1nnc(-c2cccc([N+](=O)[O-])c2)s1	29.2	16.1	27.3	
O=c1c2ccccc2[se]n1-c1nnc(-c2cc([N+](=O)[O-])cc([N+](=O)[O-])c2)s1	37.8	17.9	21.6	
O=c1c2ccccc2[se]n1-c1ccccc1 [EBSELEN]	15	3.75	18.3	6180
